# Reference: ChEMBL document CHEMBL3046228, “Synthesis of new bicyclo[4.1.0]heptane-2,4-dione derivatives and their herbicidal activity” (J Pestic Sci, 2007)
# What was measured:
# Amaranthus retroflexus = test: Herbicidal activity against Amaranthus retroflexus assessed as induction of plant damage applied through foliar spraying; assay type: functional
# Zea mays = test: Phytotoxicity against Zea mays (maize) assessed as induction of plant damage applied through foliar spraying; assay type: organism-based; conditions: in vivo, other
# Abutilon theophrasti = test: Herbicidal activity against Abutilon theophrasti (velvetleaf) assessed as induction of plant damage applied through foliar spraying; assay type: functional
# Setaria faberi = test: Herbicidal activity against Setaria faberi (Giant Foxtail) assessed as induction of plant damage applied through foliar spraying; assay type: functional
# Digitaria sanguinalis = test: Herbicidal activity against Digitaria sanguinalis (hairy crabgrass) assessed as induction of plant damage applied through foliar spraying; assay type: functional
SMILES,ED80 (Amaranthus retroflexus),ED0 (Zea mays),ED80 (Abutilon theophrasti),ED80 (Setaria faberi),ED80 (Digitaria sanguinalis)
CSc1ccc(C(=O)C2C(=O)C[C@H]3C[C@H]3C2=O)c([N+](=O)[O-])c1 (relative stereo),31 gAi/ha,125 gAi/ha,16 gAi/ha,250 gAi/ha,63 gAi/ha
COc1ccc(C(=O)C2C(=O)C[C@H]3C[C@H]3C2=O)c([N+](=O)[O-])c1 (relative stereo),500 gAi/ha,31 gAi/ha,125 gAi/ha,125 gAi/ha,125 gAi/ha
O=C1C[C@H]2C[C@H]2C(=O)C1C(=O)c1ccc(C(F)(F)F)cc1[N+](=O)[O-] (relative stereo),63 gAi/ha,31 gAi/ha,16 gAi/ha,63 gAi/ha,63 gAi/ha
O=C1C[C@H]2C[C@H]2C(=O)C1C(=O)c1ccc(Cl)cc1[N+](=O)[O-] (relative stereo),63 gAi/ha,16 gAi/ha,16 gAi/ha,125 gAi/ha,63 gAi/ha
CC1CC(=O)C(C(=O)c2ccc(Cl)cc2[N+](=O)[O-])C(=O)C1 (stereo not given),125 gAi/ha,63 gAi/ha,125 gAi/ha,16 gAi/ha,31 gAi/ha
Cc1cc(S(C)(=O)=O)ccc1C(=O)C1C(=O)C[C@H]2C[C@H]2C1=O (relative stereo),63 gAi/ha,250 gAi/ha,16 gAi/ha,250 gAi/ha,250 gAi/ha
CSCC1CC(=O)C(C(=O)c2ccc(Cl)cc2[N+](=O)[O-])C(=O)C1 (stereo not given),500 gAi/ha,125 gAi/ha,63 gAi/ha,125 gAi/ha,250 gAi/ha
CC1CCC(=O)C(C(=O)c2ccc(Cl)cc2[N+](=O)[O-])C1=O (stereo not given),250 gAi/ha,125 gAi/ha,63 gAi/ha,–,63 gAi/ha
CCCC1CC(=O)C(C(=O)c2ccc(Cl)cc2[N+](=O)[O-])C(=O)C1 (stereo not given),2000 gAi/ha,125 gAi/ha,>2000 gAi/ha,–,500 gAi/ha
CC1CC(=O)C(C(=O)c2ccc(Cl)cc2[N+](=O)[O-])C(=O)C1C (stereo not given),500 gAi/ha,125 gAi/ha,125 gAi/ha,31 gAi/ha,31 gAi/ha
O=C1CC2CCCC2C(=O)C1C(=O)c1ccc(Cl)cc1[N+](=O)[O-] (stereo not given),500 gAi/ha,63 gAi/ha,500 gAi/ha,500 gAi/ha,250 gAi/ha
CS(=O)(=O)c1ccc(C(=O)C2C(=O)C[C@H]3C[C@H]3C2=O)c(Cl)c1 (relative stereo),31 gAi/ha,125 gAi/ha,16 gAi/ha,63 gAi/ha,125 gAi/ha
CCCCC1CC(=O)C(C(=O)c2ccc(Cl)cc2[N+](=O)[O-])C(=O)C1 (stereo not given),>2000 gAi/ha,1000 gAi/ha,500 gAi/ha,–,>2000 gAi/ha
CC1(C)CC(=O)C(C(=O)c2ccc(Cl)cc2[N+](=O)[O-])C(=O)C1,2000 gAi/ha,500 gAi/ha,125 gAi/ha,–,250 gAi/ha
O=C1CCCC(=O)C1C(=O)c1ccc(Cl)cc1[N+](=O)[O-],125 gAi/ha,500 gAi/ha,31 gAi/ha,500 gAi/ha,250 gAi/ha
COCC1CC(=O)C(C(=O)c2ccc(Cl)cc2[N+](=O)[O-])C(=O)C1 (stereo not given),125 gAi/ha,125 gAi/ha,125 gAi/ha,–,500 gAi/ha
O=C1CC2CCCCC2C(=O)C1C(=O)c1ccc(Cl)cc1[N+](=O)[O-] (stereo not given),2000 gAi/ha,500 gAi/ha,500 gAi/ha,2000 gAi/ha,500 gAi/ha
CS(=O)(=O)c1ccc(C(=O)C2C(=O)C[C@H]3C[C@H]3C2=O)c([N+](=O)[O-])c1 (relative stereo),63 gAi/ha,250 gAi/ha,16 gAi/ha,250 gAi/ha,125 gAi/ha
CS(=O)(=O)c1ccc(C(=O)C2C(=O)CCCC2=O)c(Cl)c1 [SULCOTRIONE],250 gAi/ha,250 gAi/ha,16 gAi/ha,250 gAi/ha,125 gAi/ha
